# Test results reported in patent US8492328B2, “Biomarkers and methods for determining sensitivity to insulin growth factor-1 receptor modulators” (Bristol-Myers Squibb Company, priority 2007, dated 2013).
# Entries after “also recorded” stand apart in the source; their conditions may differ.
# Tests used:
# [1] = system: Rh36; assay: In vitro cellular proliferation assay ([3H]-thymidine incorporation); assay type: cell-based, human; conditions: Rh36 (Rhabdomyosarcoma)
# Description: (§1) All pediatric sarcoma and neuroblastoma cell lines were obtained from Dr. Lee Helman at NIH. All cell lines were grown in RPMI medium supplemented with Glutamax (Gibco/Invitrogen #61870-036), 10% inactivated fetal bovine serum (Gibco/Invitrogen #16140-071), 10 mM Hepes, penicillin and streptomycin.
# (§2) Cells were plated at an optimized density for each cell line per well in 96-well microtiter Falcon plates, incubated overnight, and then exposed to a serial dilution of drug. After 72 hours incubation with drug at 37° C., cells were pulsed with 4 μCi/ml [6-3H] thymidine (Amersham Pharmacia Biotech, UK) for 3 hours, trypsinized, harvested onto UniFilter-96, GF/B plates (PerkinElmer, Boston, Mass.) and scintillation was measured on a TopCount NXT (Packard, Conn.). Results were expressed as an IC50, which is the drug concentration required to inhibit cell proliferation by 50% to that of untreated control cells. The mean IC50 and standard deviation (SD) from multiple tests for each cell line were calculated.
# [2] = system: SHSY5Y; assay: as above; assay type: cell-based, human; conditions: SHSY5Y (Neuroblastoma)
# Description: as §1, §2
# [3] = system: SK-LMS-1; assay: as above; assay type: cell-based, human; conditions: SK-LMS-1 (Leiomyosarcoma)
# Description: as §1, §2
# [4] = system: IMR-32; assay: as above; assay type: cell-based, human; conditions: IMR-32 (Neuroblastoma)
# Description: as §1, §2
# [5] = system: H513; assay: as above; assay type: cell-based, human; conditions: H513 (Melignant Pleural Mesothelioma)
# Description: as §1, §2
# [6] = system: SK-NSH; assay: as above; assay type: cell-based, human; conditions: SK-NSH (Neuroblastoma)
# Description: as §1, §2
# [7] = system: JD; assay: as above; assay type: cell-based, human
# Description: as §1, §2
# [8] = system: TC71; assay: as above; assay type: cell-based, human; conditions: TC71 (Ewing)
# Description: as §1, §2
# [9] = system: HTB-92; assay: as above; assay type: cell-based, human; conditions: HTB-92 (Liposarcoma)
# Description: as §1, §2
# [10] = system: VW; assay: as above; assay type: cell-based, human; conditions: VW (Ewing)
# Description: as §1, §2
# [11] = system: H2595; assay: as above; assay type: cell-based, human; conditions: H2595 (Melignant Pleural Mesothelioma)
# Description: as §1, §2
# [12] = system: Rh41; assay: as above; assay type: cell-based, human; conditions: Rh41 (Rhabdomyosarcoma)
# Description: as §1, §2
# [13] = system: Rh1; assay: as above; assay type: cell-based, human; conditions: Rh1 (Rhabdomyosarcoma)
# Description: as §1, §2
# [14] = system: ME; assay: as above; assay type: cell-based, human; conditions: ME (Rhabdomyosarcoma)
# Description: as §1, §2
# [15] = system: RDES; assay: as above; assay type: cell-based, human; conditions: RDES (Ewing)
# Description: as §1, §2
# [16] = system: 5838; assay: as above; assay type: cell-based, human; conditions: 5838 (Ewing)
# Description: as §1, §2
# [17] = system: LG; assay: as above; assay type: cell-based, human; conditions: LG (Ewing)
# Description: as §1, §2
# [18] = system: Rh4; assay: as above; assay type: cell-based, human; conditions: Rh4 (Rhabdomyosarcoma)
# Description: as §1, §2
# [19] = system: H211; assay: as above; assay type: cell-based, human; conditions: H211 (Melignant Pleural Mesothelioma)
# Description: as §1, §2
# [20] = system: SA-4; assay: as above; assay type: cell-based, human; conditions: SA-4 (Liposarcoma)
# Description: as §1, §2
# [21] = system: KAG; assay: as above; assay type: cell-based, human; conditions: KAG (Ewing)
# Description: as §1, §2
# [22] = system: SK-NAS; assay: as above; assay type: cell-based, human
# Description: as §1, §2
# [23] = system: RD-1 cells; assay: In vitro cellular proliferation assay, parental sensitive RD-1; assay type: cell-based; conditions: Homo sapiens, RD1; sensitive parental RD-1 (RMS) cells
# Description: as §1, §2
# (§3) Acquired resistance to anti-cancer agents is a major clinical problem. […] In order to identify markers that may contribute to acquired resistance to the IGF1R inhibitor, global gene expression profiles for both parental RD1 and resistant RD1 were analyzed using Affymetrix gene chip. […]
# [24] = system: RD1-Resist cells; assay: In vitro cellular proliferation assay, compound 1 acquired resistant RD1; assay type: cell-based; conditions: Homo sapiens
# Description: as §1, §2, §3
# [25] = system: Rh36 cells; assay: Gene and protein expression profiling of cells with compound 1 treatment; assay type: cell-based, human; conditions: later time points, 36 and 72 hrs
# [26] = Homo sapiens, 72 hours with drug, read-out: IC50
smiles,measurement,setting,value
"Cc1cc(N2CCOCC2)cc2[nH]c(-c3c(NC[C@@H](O)c4cccc(Cl)c4)cc[nH]c3=O)nc12 [Compound 1, (S)-4-(2-(3-chlorophenyl)-2-hydroxyethylamino)-3-(4-methyl-6-morpholino-1H-benzo[d]imidazol-2-yl)-pyridin-2(1-H)-one]",IC50,[1]; [26],1600 nM
same,Sensitivity Classification,[1],R (“R” means resistant to the corresponding compounds.)
same,IC50,"[2]; Homo sapiens, SH-SY5Y, 72 hours with drug, read-out: IC50",149 nM
same,Sensitivity Classification,[2],S (“S” means sensitive)
same,IC50,[3]; [26],500 nM
same,Sensitivity Classification,[3],R (“R” means resistant to the corresponding compounds.)
same,IC50,[4]; [26],277 nM
same,Sensitivity Classification,[4],S (“S” means sensitive)
same,Sensitivity Classification,[5],R (“R” means resistant to the corresponding compounds.)
same,IC50,[5]; [26],3120 nM
same,IC50,"[6]; Homo sapiens, SK-N-SH, 72 hours with drug, read-out: IC50",196 nM
same,Sensitivity Classification,[6],S (“S” means sensitive)
same,IC50,"[7]; Homo sapiens, JD (Ewing), 72 hours with drug, read-out: IC50",232 nM
same,sensitivity/resistance classification in words,[7]; JD,resistant
same,Sensitivity Classification,[7]; JD (Ewing),S (“S” means sensitive)
same,IC50,"[8]; Homo sapiens, TC-71, 72 hours with drug, read-out: IC50",119 nM
same,Sensitivity Classification,[8],S (“S” means sensitive)
same,Sensitivity Classification,[9],R (“R” means resistant to the corresponding compounds.)
same,IC50,[9]; [26],584 nM
same,IC50,[10]; [26],101 nM
same,Sensitivity Classification,[10],S (“S” means sensitive)
same,Sensitivity Classification,[11],R (“R” means resistant to the corresponding compounds.)
same,IC50,"[11]; Homo sapiens, NCI-H2595, 72 hours with drug, read-out: IC50",5000 nM
same,IC50,[12]; [26],69 nM
same,Sensitivity Classification,[12],S (“S” means sensitive)
same,IC50,"[13]; Homo sapiens, RH-1, 72 hours with drug, read-out: IC50",135 nM
same,Sensitivity Classification,[13],S (“S” means sensitive)
same,IC50,[14]; [26],163 nM
same,Sensitivity Classification,[14],S (“S” means sensitive)
same,IC50,"[15]; Homo sapiens, RD-ES, 72 hours with drug, read-out: IC50",123 nM
same,Sensitivity Classification,[15],S (“S” means sensitive)
same,Sensitivity Classification,[16],S (“S” means sensitive)
same,IC50,[16]; [26],172 nM
same,IC50,[17]; [26],63 nM
same,Sensitivity Classification,[17],S (“S” means sensitive)
same,IC50,[18]; [26],27 nM
same,Sensitivity Classification,[18],S (“S” means sensitive)
same,Sensitivity Classification,[19],R (“R” means resistant to the corresponding compounds.)
same,IC50,"[19]; Homo sapiens, NCI-H211, 72 hours with drug, read-out: IC50",418 nM
same,IC50,[20]; [26],779 nM
same,Sensitivity Classification,[20],R (“R” means resistant to the corresponding compounds.)
same,IC50,[21]; [26],2110 nM
same,Sensitivity Classification,[21],R (“R” means resistant to the corresponding compounds.)
same,IC50,"[22]; Homo sapiens, SK-N-AS, SK-NAS (Neuroblastoma), 72 hours with drug, read-out: IC50",192 nM
same,sensitivity/resistance classification in words,[22]; SK-NAS,resistant
same,Sensitivity Classification,[22]; SK-NAS (Neuroblastoma),S (“S” means sensitive)
same,IC50,[23],238 nM
same,IC50,[24],2000 nM
same,IC50,"[24]; RD1, acquired resistant RD-1 cells",2000 nM
same,effect of drug on gene/protein expression,[25],"little to no effect; also recorded: little, to no effect"
